According to PubChem BioAssay AID504751 (National Center for Advancing Translational Sciences (NCATS), 2011):
≈ marks a conversion by molar mass, not a printed value.

Tested on: Kinetic aqueous solubility, PBS pH 7.4, LC-UV/MS
Assay: Inhibitors of Cruzain: Aqueous Profiling Assay
Source text: Chagas Disease is a neglected tropical disease that affects over 16 million people in Latin America. The cysteine protease cruzain is essential for the survival Trypanosoma cruzi, the parasitic agent responsible for Chagas disease. Potential intervention for T. cruzi includes the inhibition of cruzain. This bioassay will summarize the ongoing development of small molecule cruzain inhbitiors. Currently, a screen of ~200k compounds and through extensive follow-up work a probe was identified. To further characterize the probe, it was tested in in vitro ADME assays. This bioassay provides profiling data on aqueous kinetic solubility (PBS @ pH 7.4), an important measure that affects in vivo bioavailability. NIH Chemical Genomics Center [NCGC] NIH Molecular Libraries Probe Production Centers Network [MLPCN] MLSCN Grant: DA024891-01 PI Name: Dr. Brian Shoichet; University of California, San Francisco
1. 8ul of reference and test compound stock solution were added to 392ul 100mM phosphate buffer (pH 7.4) 2. Sample tubes were shaken for 1 hr (1000 rpm) at room temperature 3. Samples were centrifuged (10 min at 12000 rpm) to precipitate un-dissolved particles 4. Supernatants were transferred to new tubes 5. Concentration of the supernatant was determined by LC-UV or LC-MS/MS

Compound: Cc1ccc(OCCn2c(CCNC(=O)C3CCCCC3)nc3ccccc32)cc1
- solubility: 5 µM (≈ 2.03 µg/mL)
